The experiment concerns the target USP7 (Homo sapiens (Human), UniProt Q93009). Kind of experiment: USP7 inhibition assay with Ub-Rho 110 substrate (fluorescence progress curves). The experiment is classed as biochemical. To be noted: for inhibition at 100 µM / % inhibition @100 μM: 100 μM compound, 1 nM USP7, 200 nM Ub-Rho 110, 3% DMSO, triplicate; for IC50: 11 compound concentrations, two-fold serial dilutions. The protocol:
Each assay was measured in triplicate. […] All reactions contained a final concentration of 3% DMSO. […] The percent inhibition was calculated using Equation (1).
The assay design was identical to as described above. The percent inhibition was calculated using Equation 1 and fit to Equation 2 by use of the Enzyme Kinetics Module of Sigma Plot (v13:Systat Software Inc.), to determine the IC50 value.

USP7, sequence (Q93009 whole entry): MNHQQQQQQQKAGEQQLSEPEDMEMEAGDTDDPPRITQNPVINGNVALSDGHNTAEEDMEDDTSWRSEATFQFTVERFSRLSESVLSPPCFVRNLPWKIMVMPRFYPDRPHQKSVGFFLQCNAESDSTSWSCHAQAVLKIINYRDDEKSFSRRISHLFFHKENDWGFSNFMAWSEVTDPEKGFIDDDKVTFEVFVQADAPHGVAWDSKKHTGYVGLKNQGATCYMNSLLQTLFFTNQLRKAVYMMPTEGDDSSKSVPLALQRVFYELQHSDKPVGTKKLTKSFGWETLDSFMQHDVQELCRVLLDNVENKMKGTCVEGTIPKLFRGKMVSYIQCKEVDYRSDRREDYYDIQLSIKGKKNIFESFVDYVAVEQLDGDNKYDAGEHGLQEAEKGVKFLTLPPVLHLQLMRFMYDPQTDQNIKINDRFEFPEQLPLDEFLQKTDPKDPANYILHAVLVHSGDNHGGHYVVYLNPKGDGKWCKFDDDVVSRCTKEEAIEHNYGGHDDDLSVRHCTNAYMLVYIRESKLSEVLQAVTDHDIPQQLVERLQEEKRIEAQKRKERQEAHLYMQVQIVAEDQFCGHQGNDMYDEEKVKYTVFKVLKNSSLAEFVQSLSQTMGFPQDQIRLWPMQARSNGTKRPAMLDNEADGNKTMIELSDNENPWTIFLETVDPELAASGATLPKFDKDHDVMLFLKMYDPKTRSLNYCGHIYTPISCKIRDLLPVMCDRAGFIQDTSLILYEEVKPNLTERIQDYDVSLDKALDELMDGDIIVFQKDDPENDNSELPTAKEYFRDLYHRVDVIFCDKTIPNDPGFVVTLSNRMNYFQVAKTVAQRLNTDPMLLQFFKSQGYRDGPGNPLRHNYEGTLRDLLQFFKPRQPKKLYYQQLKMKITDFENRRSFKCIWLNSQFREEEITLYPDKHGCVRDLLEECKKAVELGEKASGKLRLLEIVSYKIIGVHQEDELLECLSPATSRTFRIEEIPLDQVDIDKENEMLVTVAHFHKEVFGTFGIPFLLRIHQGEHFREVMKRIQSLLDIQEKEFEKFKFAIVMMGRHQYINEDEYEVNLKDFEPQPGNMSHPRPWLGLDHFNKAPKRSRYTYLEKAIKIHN

What is called inhibition is how much of the control response was suppressed. Read a low inhibition as little suppression. In turn, `COc1ccc(C2C(C#N)=C(N)Oc3n[nH]c(-c4cccs4)c32)cc1Br` (centres unmarked) [Compound 6a, 6-Amino-4-(3-bromo-4-methoxyphenyl)-3-(thiophen-2-yl)-2,4-dihydropyrano [2,3-c]pyrazole-5-carbonitrile] displayed an inhibition at 100 µM of 72 ± 3%. Same read-out and setting: the same measure for `COc1ccc(C2C(C#N)=C(N)Oc3n[nH]c(-c4cc(C)sc4C)c32)cc1I` (centres unmarked) [Compound 7o, 6-Amino-3-(2,5-dimethylthiophen-3-yl)-4-(3-iodo-4-methoxyphenyl)-2,4-dihydropyrano[2,3-c]pyrazole-5-carbonitrile]: 29 ± 6%; for `COc1ccc(C2C(C#N)=C(N)Oc3c2c(-c2cccs2)nn3C)cc1Br` (centres unmarked) [Compound 9a, 6-Amino-4-(3-bromo-4-methoxyphenyl)-1-methyl-3-(thiophen-2-yl)-1,4-dihydropyrano[2,3-c]pyrazole-5-carbonitrile]: 0%. For orientation: IC50 means the concentration needed to halve the response being measured. A higher IC50 goes with a need for much substance. Under “1 nM USP7, 200 nM Ub-Rho 110”, `COc1ccc(C2C(C#N)=C(N)Oc3n[nH]c(-c4ccccn4)c32)cc1I` (racemic) [Compound 7d, 6-Amino-4-(3-iodo-4-methoxyphenyl)-3-(pyridin-2-yl)-2,4-dihydropyrano [2,3-c]pyrazole-5-carbonitrile] returned an IC50 of 4.4 µM. Under “tested at 150 μM compound, 1 nM USP7, 200 nM Ub-Rho 110”, this compound came in with an inhibition at 150 µM of 89 ± 2%. As for `CCOCNC1=C(C#N)C(c2ccc(OC)c(Br)c2)c2c(-c3cccs3)nn(C)c2O1` (centres unmarked) [Compound 11, 4-(3-Bromo-4-methoxyphenyl)-6-((ethoxymethyl)amino)-1-methyl-3-(thiophen-2-yl)-1,4-dihydropyrano [2,3-c]pyrazole-5-carbonitrile], 100 µM produced 0% inhibition. On to `N#CC1=C(N)Oc2n[nH]c(-c3cccs3)c2C1c1ccc(O)c(C(F)(F)F)c1` (racemic) [Compound 6v, 6-Amino-4-(4-hydroxy-3-(trifluoromethyl)phenyl)-3-(thiophen-2-yl)-2,4-dihydropyrano[2,3-c]pyrazole-5-carbonitrile], for which the “% inhibition @100 μM” value was determined as 93 ± 4%. Also, inhibition (1 nM USP7, 200 nM Ub-Rho 110) was half-maximal at 0.75 ± 0.06 µM (IC50). `COc1ccc(C2C(C#N)=C(N)Oc3n[nH]c(-c4ccsc4)c32)cc1I` (racemic) [Compound 7b, 6-Amino-4-(3-iodo-4-methoxyphenyl)-3-(thiophen-3-yl)-2,4-dihydropyrano [2,3-c]pyrazole-5-carbonitrile] registered an inhibition at 100 µM of 71 ± 3%. This compound also registered an IC50 (1 nM USP7, 200 nM Ub-Rho 110) of 5.6 ± 0.7 µM.

On to `N#CC1=C(N)Oc2n[nH]c(-c3cccs3)c2C1c1ccc2c(c1)-c1ccccc1C2` (centres unmarked) [Compound 6h, 6-amino-4-(9H-fluoren-3-yl)-3-(thiophen-2-yl)-2,4-dihydropyrano [2,3-c]pyrazole-5-carbonitrile], for which the inhibition at 100 µM is 38 ± 6%.

Compound `COc1ccc(C2C(C#N)=C(N)Oc3n[nH]c(-c4ccn(C)c4)c32)cc1Br` (racemic) [Compound 7l, 6-Amino-4-(3-bromo-4-methoxyphenyl)-3-(1-methyl-1H-pyrrol-3-yl)-2,4-dihydropyrano[2,3-c]pyrazole-5-carbonitrile] returned an inhibition at 100 µM of 88 ± 0.09%. Half-maximal inhibition (1 nM USP7, 200 nM Ub-Rho 110) (IC50) required 1.91 ± 0.8 µM. In turn, `N#CC1=C(N)Oc2n[nH]c(-c3cccs3)c2C1c1cc(Br)c(OCc2ccccc2)c(Br)c1` (centres unmarked) [Compound 6l, 6-amino-4-(4-(benzyloxy)-3,5-dibromophenyl)-3-(thiophen-2-yl)-2,4-dihydropyrano[2,3-c]pyrazole-5-carbonitrile] yielded an inhibition at 100 µM of 26 ± 3%. Regarding `COc1ccc(C2C(C#N)=C(N)Oc3n[nH]c(-c4cccs4)c32)cc1F` (racemic) [Compound 6s, 6-Amino-4-(3-fluoro-4-methoxyphenyl)-3-(thiophen-2-yl)-2,4-dihydropyrano [2,3-c]pyrazole-5-carbonitrile], the inhibition at 100 µM was determined as 32 ± 13%. The same compound had an IC50 (1 nM USP7, 200 nM Ub-Rho 110) of 7 ± 2 µM. `C=CCN1CCc2ccc(C3C(C#N)=C(N)Oc4n[nH]c(-c5cccs5)c43)cc21` (centres unmarked) [Compound 6i, 4-(1-Allylindolin-6-yl)-6-amino-3-(thiophen-2-yl)-2,4-dihydropyrano[2,3-c]pyrazole-5-carbonitrile] came in with an inhibition at 100 µM of 63 ± 1%.

On to `COc1ccc(C2C(C#N)=C(N)Oc3n[nH]c(-c4cccs4)c32)cc1` (centres unmarked) [Compound 6b, 6-Amino-4-(4-methoxyphenyl)-3-(thiophen-2-yl)-2,4-dihydropyrano [2,3-c]pyrazole-5-carbonitrile], for which testing at 100 µM gave an inhibition of 10 ± 7%.

As to `COc1ccc(C2C(C#N)=C(N)Oc3n[nH]c(-c4ccsc4)c32)cc1Br` (racemic) [Compound 7a, 6-Amino-4-(3-bromo-4-methoxyphenyl)-3-(thiophen-3-yl)-2,4-dihydropyrano [2,3-c]pyrazole-5-carbonitrile], at 100 µM the inhibition was 72 ± 4%. This compound also showed an IC50 (1 nM USP7, 200 nM Ub-Rho 110) of 8.1 ± 1 µM. For `C#CCOc1ccc(C2C(C#N)=C(N)Oc3n[nH]c(-c4cccs4)c32)cc1Br` (racemic) [Compound 6n, 6-Amino-4-(3-bromo-4-(prop-2-yn-1-yloxy)phenyl)-3-(thiophen-2-yl)-2,4-dihydropyrano[2,3-c]pyrazole-5-carbonitrile], in that order: 84 ± 2% and 4.5 ± 0.6 µM. The matching figures for `COc1ccc(C2C(C#N)=C(N)Oc3n[nH]c(-c4ccccn4)c32)cc1Br` (racemic) [Compound 7c, 6-Amino-4-(3-bromo-4-methoxyphenyl)-3-(pyridin-2-yl)-2,4-dihydropyrano [2,3-c]pyrazole-5-carbonitrile]: 85 ± 2% and 7.9 ± 0.4 µM. Compound `COc1ccc(C2C(C#N)=C(N)Oc3n[nH]c(-c4cccs4)c32)cc1I` (racemic) [Compound 6u, 6-Amino-4-(3-iodo-4-methoxyphenyl)-3-(thiophen-2-yl)-2,4-dihydropyrano [2,3-c]pyrazole-5-carbonitrile] showed an inhibition at 100 µM of 85 ± 1%. Further, the IC50 (1 nM USP7, 200 nM Ub-Rho 110) turned out to be 1.8 ± 0.1 µM. For `N#CC1=C(N)Oc2n[nH]c(-c3cccs3)c2C1c1ccc2c(c1)CCO2` (racemic) [Compound 6o, 6-Amino-4-(2,3-dihydrobenzofuran-5-yl)-3-(thiophen-2-yl)-2,4-dihydropyrano [2,3-c]pyrazole-5-carbonitrile], in that order: 45 ± 9% and 13 ± 3 µM. Consider `N#CC1=C(N)Oc2n[nH]c(-c3cccs3)c2C1c1ccc(O)cc1` (centres unmarked) [Compound 6d, 6-Amino-4-(4-hydroxyphenyl)-3-(thiophen-2-yl)-2,4-dihydropyrano [2,3-c]pyrazole-5-carbonitrile], for which 100 µM produced 0% inhibition. As for `N#CC1=C(N)Oc2n[nH]c(-c3cccs3)c2C1c1ccc(O)c(C(F)(F)F)c1` (racemic) [Compound 6q, 6-Amino-4-(4-hydroxy-3-(trifluoromethyl)phenyl)-3-(thiophen-2-yl)-2,4-dihydropyrano[2,3-c]pyrazole-5-carbonitrile], 100 µM produced 92 ± 2% inhibition. This compound also returned an IC50 (1 nM USP7, 200 nM Ub-Rho 110) of 11 ± 0.7 µM. The matching figures for `COc1ccc(C2C(C#N)=C(N)Oc3n[nH]c(-c4ccn(C)c4)c32)cc1I` (racemic) [Compound 7m, 6-Amino-4-(3-iodo-4-methoxyphenyl)-3-(1-methyl-1H-pyrrol-3-yl)-2,4-dihydropyrano[2,3-c]pyrazole-5-carbonitrile]: 89 ± 1% and 1.31 ± 0.06 µM. In turn, `COc1ccc(C2C(C#N)=C(N)Oc3n[nH]c(-c4cc(C)sc4C)c32)cc1Br` (centres unmarked) [Compound 7n, 6-Amino-4-(3-bromo-4-methoxyphenyl)-3-(2,5-dimethylthiophen-3-yl)-2,4-dihydropyrano[2,3-c]pyrazole-5-carbonitrile] returned an inhibition at 100 µM of 32 ± 3%. In turn, `COc1ccc(C2C(C#N)=C(N)Oc3n[nH]c(-c4ccc(Cl)cc4)c32)cc1Br` (racemic) [Compound 7h, 6-Amino-4-(3-bromo-4-methoxyphenyl)-3-(4-chlorophenyl)-2,4-dihydropyrano [2,3-c]pyrazole-5-carbonitrile] gave an inhibition at 100 µM of 66 ± 3%. Under “1 nM USP7, 200 nM Ub-Rho 110”, this compound had an IC50 of 7.5 ± 0.9 µM. Compound `Cc1ccc(C2C(C#N)=C(N)Oc3n[nH]c(-c4ccc(Cl)cc4)c32)cc1C` (centres unmarked) [Compound 7g, 6-Amino-3-(4-chlorophenyl)-4-(3,4-dimethylphenyl)-2,4-dihydropyrano[2,3-c]pyrazole-5-carbonitrile] registered an inhibition at 100 µM of 34 ± 6%. For `COc1ccc(C2C(C#N)=C(N)Oc3n[nH]c(-c4ccc(Cl)cc4)c32)cc1I` (centres unmarked) [Compound 7i, 6-Amino-3-(4-chlorophenyl)-4-(3-iodo-4-methoxyphenyl)-2,4-dihydropyrano [2,3-c]pyrazole-5-carbonitrilem], the “% inhibition @100 μM” value turned out to be 69 ± 3%. For the same compound, half-maximal inhibition (1 nM USP7, 200 nM Ub-Rho 110) (IC50) required 15 ± 2 µM. For `COc1ccc(C2C(C#N)=C(N)Oc3nn(C(C)=O)c(-c4cccs4)c32)cc1Br` (centres unmarked) [Compound 14, 2-Acetyl-6-amino-4-(3-bromo-4-methoxyphenyl)-3-(thiophen-2-yl)-2,4-dihydropyrano[2,3-c]pyrazole-5-carbonitrile], the inhibition at 100 µM came out at 85 ± 2%. This compound also returned an IC50 (1 nM USP7, 200 nM Ub-Rho 110) of 0.53 ± 0.05 µM. As for `COc1ccc(C2C(C#N)=COc3n[nH]c(-c4cccs4)c32)cc1Br` (centres unmarked) [Compound 15, 4-(3-Bromo-4-methoxyphenyl)-3-(thiophen-2-yl)-2,4-dihydropyrano [2,3-c]pyrazole-5-carbonitrile], the inhibition at 100 µM was determined as 0%. Still for that read-out and setting: the result for `CNC1=C(C#N)C(c2ccc(OC)c(Br)c2)c2c(n[nH]c2-c2cccs2)O1` (centres unmarked) [Compound 13, 4-(3-Bromo-4-methoxyphenyl)-6-(methylamino)-3-(thiophen-2-yl)-2,4-dihydropyrano[2,3-c]pyrazole-5-carbonitrile] reads 47 ± 1%; that for `N#CC1=C(N)Oc2n[nH]c(-c3cccs3)c2C1c1ccc(Cl)cc1` (centres unmarked) [Compound 6f, 6-Amino-4-(4-chlorophenyl)-3-(thiophen-2-yl)-2,4-dihydropyrano[2,3-c]pyrazole-5-carbonitrile], 31 ± 6%.

The values above are taken from patent US10980781B2, “6-amino-2,4-dihydropyrano [2,3-c] pyrazoles and methods of use” (Purdue Research Foundation, priority 2017, dated 2021).
